Laboratory results as given in publication PMC12700220, “Synthesis, photochemical and biological evaluation of novel photoswitchable glycomimetic ligands of Pseudomonas aeruginosa LecB” (RSC Advances, 2025).

Legend:
LecB [1] = biological target: T1, LecB (Pseudomonas aeruginosa, UniProt Q9HYN5); experiment: ITC after […] nm illumination; format: binding; parameters: N-terminal 6xHis-tagged LecB
LecB [2] = biological target: T1, LecB; experiment: (soak, […] Å) and ITC; format: binding; parameters: N-terminal 6xHis-tagged LecB (homotetramer)

T1 sequence (Q9HYN5 entry or part of it): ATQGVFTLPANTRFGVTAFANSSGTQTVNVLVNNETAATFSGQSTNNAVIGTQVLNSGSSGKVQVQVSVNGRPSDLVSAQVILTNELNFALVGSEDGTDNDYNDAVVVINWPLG

Row | SMILES | Kd (LecB [1]) [µM] | Kd (LecB [2]) [µM]
1 | C[C@@H]1O[C@H](CNS(=O)(=O)c2ccc(/N=N\c3ccccc3)cc2)[C@@H](O)[C@H](O)[C@@H]1O (mixture of isomers) [photofucose-2, cis-photofucose-2] | 4.71 ± 2.61 | –
2 | C[C@@H]1O[C@H](CNS(=O)(=O)c2ccc(/N=N/c3ccccc3)cc2)[C@@H](O)[C@H](O)[C@@H]1O [photofucose-2, 4-((E)-phenyldiazenyl)-N-(((2R,3S,4R,5S,6S)-3,4,5-trihydroxy-6-methyltetrahydro-2H-pyran-2-yl)methyl)benzenesulfonamide] | – | 1.82 ± 0.408
